Reference: patent US4188402A, “Derivatives of the D-threo-1-phenyl-2-trifluoroacetamido-1,3-propandediol” (Clesa S.p.A., priority 1977, dated 1980)
In brackets after ≈: the same amount, converted by molar mass.

Assays:
[1] = test system: multocide NCTC 10722 Pasteurella; assay: PD50 in experimental infection of the mouse by intraperitoneal inoculation (Table 3); type: in vivo; settings: 120 h, treatment time 5 days, about 100 times the lethal amount at 50% i.p., Spearman-Karber
Excerpt: The study of the antibiotic activity of the derivatives of the present invention was completed by the determination of PD50 in experimental infections from multocide NCTC 10722 Pasteurella induced in the mouse by intraperitoneal inoculation of a bacterial amount equal to about 100 times the lethal amount at 50%. The determination of PD50 relating to the examined derivatives has been carried out according to the method of Spearman-Karber (L. Cavalli-Sforza "Analisi statistica per medici e biologi e analisi del dosaggio biologico"--Ed. Universitarie Boringhieri--Torino--1961, pages 173-175).

[2] = test system: Strep. faecalis ATCC 10541; assay: MIC, agar dilutions in a double series, in vitro (Table 2); type: cell-based; settings: Enterococcus faecalis, ATCC10541, Strep. faecalis ATCC 10541, agar dilution
Method: (§1) Insofar as the study of the antibacterial activity spectrum is concerned, this was performed by using the method of agar dilutions in a double series. The minimum inhibitory concentration (MIC) was performed against grampositive and gram-negative microorganisms as well as Proteus.

E. Coli K12 = assay: as above; type: cell-based; settings: Escherichia coli, E. Coli K12, agar dilution
Method: as §1

Strep. agalactiae 4 b = assay: as above; type: cell-based; settings: Streptococcus agalactiae, agar dilution
Method: as §1

Salmonelli Typhi M-VI = assay: as above; type: cell-based
Method: as §1

S. aureus Oxford = assay: as above; type: cell-based; settings: Staphylococcus aureus, agar dilution
Method: as §1

[3] = test system: Past. multocide NCTC 10722; assay: as above; type: cell-based; settings: Past. multocide NCTC 10722, agar dilution
Method: as §1

Proteus morgani N 520 = assay: as above; type: cell-based; settings: Proteus morgani N 520, agar dilution
Method: as §1

[4] = test system: Streptococcus faecalis Z 61; assay: MIC in vitro against thiamphenicol-resistant strain; type: cell-based; settings: Enterococcus faecalis, Z61, Streptococcus faecalis Z 61, thiamphenicol-resistant
Excerpt: (§2) Furthermore, the compounds of the present invention show a certain bacterial activity, both "in vitro" and in the presence of rabbit serum, in respect of some microorganism strains resistant against thiamphenicol (ie., […]; see Merck Index Ninth Edition, page 9034) as it appears from the following results: […]

[5] = test system: Streptococcus faecalis Z 20; assay: as above; type: cell-based; settings: Enterococcus faecalis, Z20, Streptococcus faecalis Z 20, thiamphenicol-resistant
Excerpt: as §2

[6] = test system: Staphylococcus albus 1238; assay: as above; type: cell-based; settings: Staphylococcus albus 1238, thiamphenicol-resistant
Excerpt: as §2

[7] = test system: Staphylococcus aureus 4180; assay: as above; type: cell-based; settings: Staphylococcus aureus 4180, thiamphenicol-resistant
Excerpt: as §2

Streptococcus faecalis = assay: MIC in culture broth, in the presence of rabbit serum, against thiamphenicol-resistant strain; type: cell-based; settings: Enterococcus faecalis
Excerpt: (§3) Furthermore, the compounds of the present invention show a certain bacterial activity, both "in vitro" and in the presence of rabbit serum, in respect of some microorganism strains resistant against thiamphenicol (ie., […]; see Merck Index Ninth Edition, page 9034) as it appears from the following results:
(§4) ** = tests carried out in culture broth, in the presence of rabbit serum.

[8] = test system: Pseudomonas aeruginosa 50541; assay: as above; type: cell-based; settings: Pseudomonas aeruginosa 50541, thiamphenicol-resistant
Excerpt: as §3, §4

[9] = Hydrolysis of the esters in the animal organism; type: in vivo; settings: ester at the alcoholic function
[10] = test system: grampositive and gram-negative microorganisms as well as Proteus; assay: Antibacterial activity of the esterified derivatives compared with Z 2100; settings: after hydrolysis in the animal organism
Method: as §1

Shighelli Boydii 4 = assay: MIC, agar dilutions in a double series, in vitro (Table 2); type: cell-based; settings: Shighelli Boydii 4, agar dilution
Method: as §1

SMILES	ED50 ([1]; NCTC10722, po, per os) [mg/kg]	MIC [2] [µg/mL]	MIC (E. Coli K12) [µg/mL]	MIC (Strep. agalactiae 4 b) [µg/mL]	MIC (Salmonelli Typhi M-VI) [µg/mL]	MIC (S. aureus Oxford) [µg/mL]	MIC [3] [µg/mL]	MIC (Proteus morgani N 520) [µg/mL]	MIC [4] [µg/mL]	MIC [5] [µg/mL]	MIC [6] [µg/mL]	MIC [7] [µg/mL]	MIC (Streptococcus faecalis) [µg/mL]	MIC [8] [µg/mL]	ED50 ([1]; NCTC10722, sc, subcutaneous) [mg/kg]	hydrolysis in the animal organism [9]	activity relative to Z 2100 [10]	MIC (Shighelli Boydii 4) [µg/mL]
CS(=O)(=O)c1ccc([C@@H](O)[C@@H](CO)NC(=O)C(F)(F)F)cc1 [Z 2100, D-(+)-threo-1-(p-methanesulphonylphenyl)-2-trifluoroacetamido-1,3-propanediol]	19	8 (≈ 23.4 µM)	64 (≈ 188 µM)	16 (≈ 46.9 µM)	32 (≈ 93.8 µM)	16 (≈ 46.9 µM)	2 (≈ 5.86 µM)	8 (≈ 23.4 µM)	80 (≈ 234 µM)	40 (≈ 117 µM)	40 (≈ 117 µM)	40 (≈ 117 µM)	80	80	–	–	–	–
CS(=O)(=O)c1ccc([C@@H](O)[C@@H](COC(=O)CN)NC(=O)C(F)(F)F)cc1 [Z 2117, D-(+)-threo-1-(p-methanesulphonylphenyl)-2-trifluoroacetamido-3-aminoacetoxy-1-propanol]	–	–	–	–	–	–	–	–	–	–	–	–	–	–	14.3	quickly hydrolyzed in the animal organism	show the same activity as Z 2100	–
CSc1ccc([C@@H](O)[C@@H](CO)NC(=O)C(F)(F)F)cc1 [Z 2109, D-(-)-threo-1-(p-methylmercaptophenyl)-2-trifluoroacetamido-1,3-propanediol]	16.6	32 (≈ 103 µM)	16 (≈ 51.7 µM)	64 (≈ 207 µM)	64 (≈ 207 µM)	32 (≈ 103 µM)	4 (≈ 12.9 µM)	4 (≈ 12.9 µM)	–	–	–	–	–	–	–	–	–	32 (≈ 103 µM)
CS(=O)(=O)c1ccc([C@@H](O)[C@@H](CO)NC(=O)C(Cl)Cl)cc1 [Thiamphenicol, reference compound]	–	–	–	–	–	–	–	–	160 (≈ 449 µM)	160 (≈ 449 µM)	160 (≈ 449 µM)	160 (≈ 449 µM)	320	160	–	–	–	–
CCCCCCCCCCCCCCCC(=O)OC[C@@H](NC(=O)C(F)(F)F)[C@H](O)c1ccc(S(C)(=O)=O)cc1 [Z 2112, D-(+)-threo-1-(p-methanesulphonylphenyl)-2-trifluoroacetamido-3-palmitoyloxy-1-propanol]	21	–	–	–	–	–	–	–	–	–	–	–	–	–	–	quickly hydrolyzed in the animal organism	show the same activity as Z 2100	–
